Read-outs that look alike come from different tables or passages of the source.
What was measured:
pre-miR-21 [1] = experiment: cat-ELCCA for Dicer-mediated pre-miRNA maturation; assay type: biochemical; conditions: for hit in HTS for inhibition of Dicer-mediated pre-miR-21 maturation: primary and confirmation screens at 25 µM, CRCs from 3.3 to 120 µM
pre-miR-21 [2] = conditions: previously shown; cited from earlier work

Row | SMILES | hit in HTS for inhibition of Dicer-mediated pre-miR-21 maturation (pre-miR-21 [1]) | also measured
1 | NC[C@H]1O[C@H](O[C@H]2[C@H](O)[C@@H](O[C@H]3O[C@H](CO)[C@@H](O)[C@H](N)[C@H]3O)[C@H](N)C[C@@H]2N)[C@H](O)[C@@H](O)[C@@H]1O [kanamycin] | – | inhibition of Dicer-mediated pre-miR-21 maturation (pre-miR-21 [1]; data not shown): do not inhibit
2 | C=C1c2c(Cl)ccc(O)c2C(=O)C2=C(O)[C@]3(O)C(=O)C(C(N)=O)=C(O)[C@@H](N(C)C)[C@@H]3[C@@H](O)[C@H]12 [meclocycline] | emerged as hits | –
3 | C=C1c2cccc(O)c2C(=O)C2=C(O)[C@]3(O)C(=O)C(C(N)=O)=C(O)[C@@H](N(C)C)[C@@H]3[C@@H](O)[C@H]12 [methacycline] | emerged as hits | –
4 | CN(C)c1ccc(O)c2c1C[C@H]1C[C@H]3[C@H](N(C)C)C(O)=C(C(N)=O)C(=O)[C@@]3(O)C(O)=C1C2=O [minocycline] | emerged as hits | –
5 | [H]/N=C(/N)N[C@H]1[C@H](O)[C@@H](O)[C@H](O[C@@H]2O[C@@H](C)[C@](O)(C=O)[C@H]2O[C@@H]2O[C@@H](CO)[C@H](O)[C@@H](O)[C@@H]2NC)[C@@H](N/C(N)=N\[H])[C@@H]1O [streptomycin] | – | inhibition of Dicer-mediated pre-miR-21 maturation (pre-miR-21 [2]): do not inhibit

— paper PMC5797708 (SLAS discovery : advancing life sciences R & D, 2017)
